{"source": "paper PMC3935314", "about": "(Biochemical pharmacology, 2013)", "molecular_target": "GPR55 (Homo sapiens, UniProt Q9Y2T6)", "sequence (Q9Y2T6 whole entry)": "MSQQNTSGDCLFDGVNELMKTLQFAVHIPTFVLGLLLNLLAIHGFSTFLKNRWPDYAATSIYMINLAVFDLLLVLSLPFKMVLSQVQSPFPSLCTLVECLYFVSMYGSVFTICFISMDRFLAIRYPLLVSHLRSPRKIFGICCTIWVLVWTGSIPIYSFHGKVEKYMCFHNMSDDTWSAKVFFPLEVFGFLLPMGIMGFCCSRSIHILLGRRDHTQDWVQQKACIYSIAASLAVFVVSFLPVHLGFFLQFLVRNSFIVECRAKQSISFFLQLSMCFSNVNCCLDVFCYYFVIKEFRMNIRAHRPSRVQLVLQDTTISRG", "assay": "saturable fluorescent ligand uptake in live cells, reduced by GPR55 siRNA", "type": "cell-based", "note": "pEC50: −log10 of the molar value.", "data": [{"substance": "Tocrifluor 1117 [T1117]", "values": [{"measurement": "pEC50", "value": "~8.10"}]}]}
